Legend:
Settings in all cases: incubation time: 72 h
BT-474 [1] = assay: normalised response (% of control), CellTox Green; higher = less cell death (100 = DMSO, 0 = benzethonium chloride kill control)
Procedure, shortened: (§1)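 Two readouts were taken after 72 h: CellTox Green fluorescence (485/520 nm) first, then CellTiter-Glo luminescence after 10 min at room temperature. Breast cancer cell lines had been seeded as 20 µl suspension into 384-well plates holding compound at 5 concentrations in 10-fold steps across a compound-specific 10,000-fold range. Each value is a normalised signal at a single concentration, with plates scaled to 0.1 % DMSO (100) and a positive kill control (0).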

BT-549 [2] = assay: as above
Procedure, shortened: as §1

CAL-120 [3] = assay: as above
Procedure, shortened: as §1

CAL-148 [4] = assay: as above
Procedure, shortened: as §1

CAL-51 [5] = assay: as above
Procedure, shortened: as §1

CAL-85-1 [6] = assay: as above
Procedure, shortened: as §1

DU-4475 [7] = assay: as above
Procedure, shortened: as §1

HCC1143 [8] = assay: as above
Procedure, shortened: as §1

HCC1599 [9] = assay: as above
Procedure, shortened: as §1

HCC1937 [10] = assay: as above
Procedure, shortened: as §1

HDQ-P1 [11] = assay: as above
Procedure, shortened: as §1

MCF-10A [12] = assay: as above
Procedure, shortened: as §1

MDA-MB-231 [13] = assay: as above
Procedure, shortened: as §1

MDA-MB-436 [14] = assay: as above
Procedure, shortened: as §1

MDA-MB-453 [15] = assay: as above
Procedure, shortened: as §1

MDA-MB-468 [16] = assay: as above
Procedure, shortened: as §1

MFM-223 [17] = assay: as above
Procedure, shortened: as §1

BT-474 [18] = assay: normalised response (% of control), CellTiter-Glo; higher = more viable cells (100 = DMSO, 0 = benzethonium chloride kill control)
Procedure, shortened: as §1

BT-549 [19] = assay: as above
Procedure, shortened: as §1

CAL-120 [20] = assay: as above
Procedure, shortened: as §1

CAL-148 [21] = assay: as above
Procedure, shortened: as §1

CAL-51 [22] = assay: as above
Procedure, shortened: as §1

CAL-85-1 [23] = assay: as above
Procedure, shortened: as §1

DU-4475 [24] = assay: as above
Procedure, shortened: as §1

HCC1143 [25] = assay: as above
Procedure, shortened: as §1

HCC1599 [26] = assay: as above
Procedure, shortened: as §1

HCC1937 [27] = assay: as above
Procedure, shortened: as §1

HDQ-P1 [28] = assay: as above
Procedure, shortened: as §1

Hs578T [29] = assay: as above
Procedure, shortened: as §1

MCF-10A [30] = assay: as above
Procedure, shortened: as §1

MDA-MB-231 [31] = assay: as above
Procedure, shortened: as §1

MDA-MB-436 [32] = assay: as above
Procedure, shortened: as §1

MDA-MB-453 [33] = assay: as above
Procedure, shortened: as §1

MDA-MB-468 [34] = assay: as above
Procedure, shortened: as §1

MFM-223 [35] = assay: as above
Procedure, shortened: as §1

SK-BR-3 = assay: as above
Procedure, shortened: as §1

Hs578T [36] = assay: normalised response (% of control), CellTox Green; higher = less cell death (100 = DMSO, 0 = benzethonium chloride kill control)
Procedure, shortened: as §1

With `CN[C@@H](C)C(=O)N[C@H]1CN(C(=O)CC(C)C)CC[C@H]2CC[C@@H](C(=O)NC(c3ccccc3)c3ccccc3)N2C1=O` [AT-406] (1000 nM) the normalised response (BT-474 [1]) was 89.7%, the normalised response (BT-549 [2]) was 53.4% and the normalised response (CAL-120 [3]) was 76.4%. The normalised response (CAL-148 [4]) was 55.1%, the normalised response (CAL-51 [5]) was 97.2% and the normalised response (CAL-85-1 [6]) was 24%. It also gave a normalised response (DU-4475 [7]) of 101%, a normalised response (HCC1143 [8]) of 107% and a normalised response (HCC1599 [9]) of 93.1%. The normalised response (HCC1937 [10]) was 101%, the normalised response (HDQ-P1 [11]) was 79.6% and the normalised response (MCF-10A [12]) was 109%. For the same compound, the normalised response (MDA-MB-231 [13]) was -42.1%, the normalised response (MDA-MB-436 [14]) was 86.1% and the normalised response (MDA-MB-453 [15]) was 94.9%. It also gave a normalised response (MDA-MB-468 [16]) of 109%, a normalised response (MFM-223 [17]) of 54.2% and a normalised response (BT-474 [18]) of 24.8%. The normalised response (BT-549 [19]) was 59.7%, the normalised response (CAL-120 [20]) was 85.6% and the normalised response (CAL-148 [21]) was 82.4%. It also gave a normalised response (CAL-51 [22]) of 98.2%, a normalised response (CAL-85-1 [23]) of 63.3% and a normalised response (DU-4475 [24]) of 101%. The normalised response (HCC1143 [25]) was 95.6%, the normalised response (HCC1599 [26]) was 106% and the normalised response (HCC1937 [27]) was 94%. It also gave a normalised response (HDQ-P1 [28]) of 83.1%, a normalised response (Hs578T [29]) of 95.7% and a normalised response (MCF-10A [30]) of 107%. For the same compound, the normalised response (MDA-MB-231 [31]) was 38.8%, the normalised response (MDA-MB-436 [32]) was 99.1% and the normalised response (MDA-MB-453 [33]) was 78.5%. The normalised response (MDA-MB-468 [34]) was 71.3%, the normalised response (MFM-223 [35]) was 101% and the normalised response (SK-BR-3) was 99.6%.

Work on `CC1(COc2ccc3c(c2)ncn3-c2ccc3cccc(N4CCC(N)CC4)c3n2)COC1` [Crenolanib] (1000 nM) yielded a normalised response (BT-474 [1]) of 91.4%, a normalised response (BT-549 [2]) of 71.2% and a normalised response (CAL-120 [3]) of 99.5%. For the same compound, the normalised response (CAL-148 [4]) was 97.7%, the normalised response (CAL-51 [5]) was 85.9% and the normalised response (CAL-85-1 [6]) was 104%. It also gave a normalised response (DU-4475 [7]) of 101%, a normalised response (HCC1143 [8]) of 99% and a normalised response (HCC1599 [9]) of 94.7%. For the same compound, the normalised response (HCC1937 [10]) was 51.6%, the normalised response (HDQ-P1 [11]) was 71% and the normalised response (Hs578T [36]) was 83.4%. For the same compound, the normalised response (MCF-10A [12]) was 108%, the normalised response (MDA-MB-231 [13]) was 124% and the normalised response (MDA-MB-436 [14]) was 50.8%. For the same compound, the normalised response (MDA-MB-453 [15]) was 112%, the normalised response (MFM-223 [17]) was 100% and the normalised response (BT-474 [18]) was 111%. It also gave a normalised response (BT-549 [19]) of 82.5%, a normalised response (CAL-120 [20]) of 86.7% and a normalised response (CAL-148 [21]) of 109%. For the same compound, the normalised response (CAL-51 [22]) was 86.2%, the normalised response (CAL-85-1 [23]) was 117% and the normalised response (DU-4475 [24]) was 96.2%. The normalised response (HCC1143 [25]) was 101%, the normalised response (HCC1599 [26]) was 110% and the normalised response (HCC1937 [27]) was 100%. The normalised response (HDQ-P1 [28]) was 108%, the normalised response (Hs578T [29]) was 96.4% and the normalised response (MCF-10A [30]) was 113%. It also gave a normalised response (MDA-MB-231 [31]) of 122%, a normalised response (MDA-MB-436 [32]) of 103% and a normalised response (MDA-MB-453 [33]) of 114%. It also gave a normalised response (MDA-MB-468 [34]) of 101%, a normalised response (MFM-223 [35]) of 102% and a normalised response (SK-BR-3) of 123%.

In the case of `CC(C)(C)c1nc(-c2cccc(NS(=O)(=O)c3c(F)cccc3F)c2F)c(-c2ccnc(N)n2)s1` [Dabrafenib] (250 nM), the normalised response (BT-474 [1]) is reported as 99.1%, the normalised response (BT-549 [2]) is reported as 82.7% and the normalised response (CAL-120 [3]) is reported as -30.1%. It also gave a normalised response (CAL-148 [4]) of 106%, a normalised response (CAL-51 [5]) of 110% and a normalised response (CAL-85-1 [6]) of 110%. It also gave a normalised response (DU-4475 [7]) of 83%, a normalised response (HCC1143 [8]) of 111% and a normalised response (HCC1599 [9]) of 100%. It also gave a normalised response (HCC1937 [10]) of 106%, a normalised response (HDQ-P1 [11]) of 114% and a normalised response (MCF-10A [12]) of 94.2%. For the same compound, the normalised response (MDA-MB-231 [13]) was 107%, the normalised response (MDA-MB-436 [14]) was 101% and the normalised response (MDA-MB-453 [15]) was 105%. It also gave a normalised response (MDA-MB-468 [16]) of 117%, a normalised response (MFM-223 [17]) of 103% and a normalised response (BT-474 [18]) of 97.9%. For the same compound, the normalised response (BT-549 [19]) was 91%, the normalised response (CAL-120 [20]) was 36.6% and the normalised response (CAL-148 [21]) was 101%. The normalised response (CAL-51 [22]) was 129%, the normalised response (CAL-85-1 [23]) was 99.8% and the normalised response (DU-4475 [24]) was 8.24%. For the same compound, the normalised response (HCC1143 [25]) was 106%, the normalised response (HCC1599 [26]) was 107% and the normalised response (HCC1937 [27]) was 105%. The normalised response (HDQ-P1 [28]) was 115%, the normalised response (Hs578T [29]) was 90.8% and the normalised response (MCF-10A [30]) was 125%. It also gave a normalised response (MDA-MB-231 [31]) of 106%, a normalised response (MDA-MB-436 [32]) of 106% and a normalised response (MDA-MB-453 [33]) of 92.3%. For the same compound, the normalised response (MDA-MB-468 [34]) was 92%, the normalised response (MFM-223 [35]) was 107% and the normalised response (SK-BR-3) was 105%.

With `Cc1nc(C(=O)NCC(=O)O)c(O)c2ccc(Oc3ccccc3)cc12` [FG-4592] (1000 nM) the normalised response (BT-474 [1]) was 101%, the normalised response (BT-549 [2]) was 97.3% and the normalised response (CAL-120 [3]) was 103%. The normalised response (CAL-148 [4]) was 93%, the normalised response (CAL-51 [5]) was 112% and the normalised response (CAL-85-1 [6]) was 101%. The normalised response (DU-4475 [7]) was 107%, the normalised response (HCC1143 [8]) was 110% and the normalised response (HCC1599 [9]) was 93.5%. For the same compound, the normalised response (HCC1937 [10]) was 110%, the normalised response (Hs578T [36]) was 85.2% and the normalised response (MCF-10A [12]) was 94.2%. It also gave a normalised response (MDA-MB-231 [13]) of 103%, a normalised response (MDA-MB-436 [14]) of 108% and a normalised response (MDA-MB-453 [15]) of 111%. The normalised response (MDA-MB-468 [16]) was 86%, the normalised response (MFM-223 [17]) was 103% and the normalised response (BT-474 [18]) was 106%. For the same compound, the normalised response (BT-549 [19]) was 102%, the normalised response (CAL-120 [20]) was 102% and the normalised response (CAL-148 [21]) was 97.2%. The normalised response (CAL-51 [22]) was 119%, the normalised response (CAL-85-1 [23]) was 105% and the normalised response (DU-4475 [24]) was 103%. It also gave a normalised response (HCC1143 [25]) of 109%, a normalised response (HCC1599 [26]) of 117% and a normalised response (HCC1937 [27]) of 101%. It also gave a normalised response (HDQ-P1 [28]) of 116%, a normalised response (Hs578T [29]) of 109% and a normalised response (MCF-10A [30]) of 113%. For the same compound, the normalised response (MDA-MB-231 [31]) was 102%, the normalised response (MDA-MB-436 [32]) was 100% and the normalised response (MDA-MB-453 [33]) was 98.6%. The normalised response (MDA-MB-468 [34]) was 103%, the normalised response (MFM-223 [35]) was 102% and the normalised response (SK-BR-3) was 110%.

From the supplement of paper PMC4862054
